Where two headings read alike, the source gives them in different places.
Legend:
[1] = target: T1, EED (1-441)-His protein (Homo sapiens, UniProt O75530); experiment: EED-H3K27Me3 peptide competition binding assay by AlphaScreen
T1 construct: 30 nM EED (1-441)-His protein
In short: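 Serially diluted compound (12 points, 3-fold) incubated 20 min with 30 nM EED(1-441)-His and 15 nM biotin-H3K27Me3(19-33) peptide in 25 mM HEPES pH 8, 0.02% Tween-20, 0.5% BSA. Ni-chelate acceptor/streptavidin donor beads (10 μg/mL each) added, 1 h rt dark; 615 nm emission normalized to controls, dose-response fit for IC50.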

[2] = target: wild type PRC2 (wtPRC2) complex (Homo sapiens, UniProt O75530); experiment: EED LC-MS assay (SAH production by PRC2); assay type: biochemical; conditions: read-out: (b) IC50, EED LC-MS Qualified
Protocol: Compounds of the present invention were assessed for their ability to inhibit PRC2 activity in a pentameric complex of EZH2, SUZ12, EED, Rbap48 and AEBP in biochemical assays. The ability of compounds of the present invention to inhibit cellular activity of PRC2 was assessed by analysing histone H3 lysine 27 methylation in human cell lines. The ability of compounds of the present invention to inhibit cancers was derived from their ability to modulate activity in human cancer cell lines bearing specific dependence to PRC2 activity to maintain cancerous growth.
Representative compounds of the present invention were serially and separately diluted 3-fold in DMSO to obtain a total of eight or twelve concentrations. Then the test compounds at each concentration (120 nL of each) were transferred by Mosquito into a 384-well Perkin Elmer ProxiPlate 384 plus plates. Solutions (6 μL) of 24 nM the wild type PRC2 (wtPRC2) complex and 2 μM SAM in reaction buffer (20 mM Tris, pH 8.0, 0.1% BSA, 0.01% Triton, 0.5 mM DTT) were added to the wells that were then incubated with the test compound for 20 min. A 6 μL solution of 3 μM of the peptide substrate H3K27Me0 (histone H3[21-44]-biotin) in reaction buffer was added to initiate each reaction. The final components in the reaction solution include 12 nM wtPRC2 complex, 1 μM SAM, and 1.5 μM H3K27me0 peptide with varying concentration of the compounds. A positive control consisted of the enzyme, 1 μM SAM and 1.5 μM substrate in the absence of the test compound, and a negative control consisted of 1 μM SAM and 1.5 μM substrate only. Each reaction was incubated at rt for 120 min, then stopped by addition of 3 μL per of quench solution (2.5% TFA with 320 nM d4-SAH). The reaction mixture was centrifuged (Eppendorf centrifuge 5810, Rotor A-4-62) for 2 min at 2000 rpm and read on an API 4000 triple quadrupole mass spec with Turbulon Spray (Applied Biosystem) coupled with Prominence UFLC (Shimadzu). The levels of SAH production were then normalized based on the values coming from the positive and negative controls to give percent enzyme activities. The data were then fit to a dose response equation using the program Helios to get the IC50 values of the test compound.

[3] = tested on: H3K27 methylation in G401 cell; experiment: ELISA (H3K27 methylation) assay in G401 cells; assay type: cell-based, human; conditions: Homo sapiens
In short: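 IC50 from dose-response fit of percent inhibition relative to DMSO, using H3K27me3/me2 ELISA signal (ECL) normalized to histone H3. Histones HCl-extracted after 48 h compound exposure of G401 cells at up to 20 μM, 8- or 12-point 3-fold series.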

[4] = read-out: (a) IC50, EED Alphascreen binding Qualified
[5] = G-401, read-out: (c) IC50, ELISA Qualified
[6] = EED-H3K27Me3 peptide competition, AlphaScreen, read-out: (a) IC50 EED Alphascreen binding Qualified
[7] = G-401, H3K27 methylation ELISA, read-out: (c) IC50 ELISA Qualified
[8] = read-out: (a) IC50 EED Alphascreen binding Qualified
[9] = G-401, read-out: (c) IC50 ELISA Qualified

wild type PRC2 (wtPRC2) complex, sequence (O75530 whole entry): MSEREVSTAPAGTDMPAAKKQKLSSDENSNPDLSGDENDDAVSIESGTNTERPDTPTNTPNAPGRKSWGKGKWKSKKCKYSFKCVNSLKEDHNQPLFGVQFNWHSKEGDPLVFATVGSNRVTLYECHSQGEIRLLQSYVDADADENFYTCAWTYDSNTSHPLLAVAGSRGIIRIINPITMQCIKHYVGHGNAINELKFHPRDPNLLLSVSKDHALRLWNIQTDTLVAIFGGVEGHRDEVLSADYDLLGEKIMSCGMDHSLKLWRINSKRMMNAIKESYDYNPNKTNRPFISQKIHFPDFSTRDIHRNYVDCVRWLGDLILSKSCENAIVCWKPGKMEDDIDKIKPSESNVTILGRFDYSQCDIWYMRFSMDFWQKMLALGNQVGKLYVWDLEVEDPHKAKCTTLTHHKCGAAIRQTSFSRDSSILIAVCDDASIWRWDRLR
wild type PRC2 (wtPRC2) complex, sequence (Q15910 whole entry partner): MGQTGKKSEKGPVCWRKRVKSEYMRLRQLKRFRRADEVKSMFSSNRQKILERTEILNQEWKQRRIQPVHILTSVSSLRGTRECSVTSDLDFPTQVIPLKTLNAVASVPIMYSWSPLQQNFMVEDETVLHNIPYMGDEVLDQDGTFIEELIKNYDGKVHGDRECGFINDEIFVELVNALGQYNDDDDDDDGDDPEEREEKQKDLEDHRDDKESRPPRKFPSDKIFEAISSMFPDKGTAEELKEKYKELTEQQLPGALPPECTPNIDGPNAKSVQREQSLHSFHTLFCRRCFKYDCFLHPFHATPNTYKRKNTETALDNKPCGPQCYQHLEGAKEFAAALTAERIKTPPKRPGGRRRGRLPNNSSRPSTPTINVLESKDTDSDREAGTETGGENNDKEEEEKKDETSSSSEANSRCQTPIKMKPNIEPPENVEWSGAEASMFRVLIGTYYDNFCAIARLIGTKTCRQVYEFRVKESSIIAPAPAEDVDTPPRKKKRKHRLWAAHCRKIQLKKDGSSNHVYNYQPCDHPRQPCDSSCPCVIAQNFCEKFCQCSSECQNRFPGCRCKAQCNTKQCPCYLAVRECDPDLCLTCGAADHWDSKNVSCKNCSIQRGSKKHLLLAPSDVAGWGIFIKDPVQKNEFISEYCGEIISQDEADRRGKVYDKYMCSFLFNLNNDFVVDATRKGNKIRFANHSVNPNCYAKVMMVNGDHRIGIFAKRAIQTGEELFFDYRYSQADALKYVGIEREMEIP
wild type PRC2 (wtPRC2) complex, sequence (Q15022 whole entry partner): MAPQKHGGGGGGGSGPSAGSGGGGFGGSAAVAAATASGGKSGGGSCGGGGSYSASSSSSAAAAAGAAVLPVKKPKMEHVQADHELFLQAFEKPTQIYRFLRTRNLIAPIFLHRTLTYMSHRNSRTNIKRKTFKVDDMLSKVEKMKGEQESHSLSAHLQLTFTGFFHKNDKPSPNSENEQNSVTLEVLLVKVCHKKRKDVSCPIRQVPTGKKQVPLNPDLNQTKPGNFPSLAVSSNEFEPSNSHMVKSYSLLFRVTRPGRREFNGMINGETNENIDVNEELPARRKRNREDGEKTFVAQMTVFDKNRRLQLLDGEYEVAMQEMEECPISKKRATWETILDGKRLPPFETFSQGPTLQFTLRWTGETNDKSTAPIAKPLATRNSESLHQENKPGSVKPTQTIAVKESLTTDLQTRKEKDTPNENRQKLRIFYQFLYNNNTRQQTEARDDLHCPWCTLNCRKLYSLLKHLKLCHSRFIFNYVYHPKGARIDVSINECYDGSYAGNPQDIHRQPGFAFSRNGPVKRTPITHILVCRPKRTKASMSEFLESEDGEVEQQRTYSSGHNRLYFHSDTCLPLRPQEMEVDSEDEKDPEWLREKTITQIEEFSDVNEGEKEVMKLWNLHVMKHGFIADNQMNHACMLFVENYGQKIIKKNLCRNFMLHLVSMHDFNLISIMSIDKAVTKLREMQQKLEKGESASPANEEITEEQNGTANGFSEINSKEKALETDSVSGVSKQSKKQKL
wild type PRC2 (wtPRC2) complex, sequence (Q09028 whole entry partner): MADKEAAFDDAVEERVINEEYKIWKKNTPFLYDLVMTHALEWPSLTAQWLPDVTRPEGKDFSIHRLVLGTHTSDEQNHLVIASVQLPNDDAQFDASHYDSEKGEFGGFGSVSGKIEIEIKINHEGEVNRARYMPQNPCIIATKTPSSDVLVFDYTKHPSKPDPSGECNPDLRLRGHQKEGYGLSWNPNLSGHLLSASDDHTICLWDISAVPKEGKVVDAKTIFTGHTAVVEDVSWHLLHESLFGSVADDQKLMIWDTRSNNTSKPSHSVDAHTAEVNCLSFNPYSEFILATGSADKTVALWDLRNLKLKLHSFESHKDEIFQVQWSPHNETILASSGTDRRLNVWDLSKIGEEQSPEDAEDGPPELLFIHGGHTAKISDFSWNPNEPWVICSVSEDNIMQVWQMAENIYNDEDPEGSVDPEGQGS
wild type PRC2 (wtPRC2) complex, sequence (Q6ZN18 whole entry partner): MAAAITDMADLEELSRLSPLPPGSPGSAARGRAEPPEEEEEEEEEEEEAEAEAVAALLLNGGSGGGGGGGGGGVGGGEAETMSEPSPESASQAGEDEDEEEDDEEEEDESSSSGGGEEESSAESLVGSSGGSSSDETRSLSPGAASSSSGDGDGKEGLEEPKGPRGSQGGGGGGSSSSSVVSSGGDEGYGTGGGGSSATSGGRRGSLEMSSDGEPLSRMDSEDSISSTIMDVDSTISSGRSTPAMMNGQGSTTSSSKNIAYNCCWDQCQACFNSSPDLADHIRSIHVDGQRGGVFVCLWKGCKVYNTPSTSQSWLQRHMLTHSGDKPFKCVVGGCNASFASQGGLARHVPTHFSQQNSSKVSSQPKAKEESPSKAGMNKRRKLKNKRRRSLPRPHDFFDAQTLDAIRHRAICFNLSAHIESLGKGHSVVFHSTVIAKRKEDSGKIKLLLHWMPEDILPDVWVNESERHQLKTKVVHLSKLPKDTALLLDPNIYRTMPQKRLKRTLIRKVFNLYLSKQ
T1 sequence (O75530 whole entry): as the sequence (O75530 whole entry) above

Structure (SMILES)	IC50 [1, 4]	IC50 [2]	IC50 [3, 5]	IC50 [1, 6]	IC50 [3, 7]	further results
COc1cccc(F)c1CNc1ccc(-c2ccnn2C)c2nncn12 [Example 1, N-(2-Fluoro-6-methoxybenzyl)-8-(1-methyl-1H-pyrazol-5-yl)-[1,2,4]triazolo[4,3-a]pyridin-5-amine]	27.7 nM	11.2 nM	18.1 nM			
COc1cccc(F)c1CNc1ccc(-c2cccnc2C)c2nncn12 [Example 2, N-(2-Fluoro-6-methoxybenzyl)-8-(2-methylpyridin-3-yl)-[1,2,4]triazolo[4,3-a]pyridin-5-amine]	10.9 nM	18.8 nM	8.7 nM			
COc1cccc(F)c1CNc1ccc(-c2cnc(C)nc2C)c2nncn12 [Example 3, 8-(2,4-Dimethylpyrimidin-5-yl)-N-(2-fluoro-6-methoxybenzyl)-[1,2,4]triazolo[4,3-a]pyridin-5-amine]	17.5 nM	23.6 nM	10.7 nM			
COc1cccc(F)c1CNc1ccc(-c2cnc(CC(C)C)nc2C)c2nncn12 [Example 4, N-(2-Fluoro-6-methoxybenzyl)-8-(2-isobutyl-4-methylpyrimidin-5-yl)-[1,2,4]triazolo[4,3a]-pyridin-5-amine]	8.6 nM	6.6 nM	5.7 nM			
COc1cccc(F)c1CNc1ccc(-c2ccccn2)c2nncn12 [Example 5, N-(2-Fluoro-6-methoxybenzyl)-8-(pyridin-2-yl)-[1,2,4]triazolo[4,3-a]pyridin-5-amine]	48.2 nM	137 nM	42.6 nM			
COc1cccc(F)c1CNc1ccc(-c2ncccc2C)c2nncn12 [Example 6, N-(2-Fluoro-6-methoxybenzyl)-8-(3-methylpyridin-2-yl)-[1,2,4]triazolo[4,3-a]pyridin-5-amine]	90.9 nM	149 nM	57 nM			
COc1cccc(F)c1CNc1ccc(-n2cc(C)nc2C)c2nncn12 [Example 7, 8-(2,4-Dimethyl-1H-imidazol-1-yl)-N-(2-fluoro-6-methoxybenzyl)-[1,2,4]triazolo[4,3-a]pyridin-5-amine]	18.7 nM	11.4 nM	10.1 nM			
COc1cccc(F)c1CNc1ccc(-c2cncn2C)c2nncn12 [Example 8]	10.6 nM	35.2 nM	4.3 nM			
COc1cccc(F)c1CNc1ccc(-c2nnc(C)o2)c2nncn12 [Example 9, N-(2-Fluoro-6-methoxybenzyl)-8-(5-methyl-1,3,4-oxadiazol-2-yl)-[1,2,4]triazolo[4,3-a]pyridin-5-amine]	33.9 nM	62.4 nM	2.4 nM			
COc1cccc(F)c1CNc1ccc(-c2ccc(Cl)nc2C)c2nncn12 [Example 263, 8-(6-chloro-2-methylpyridin-3-yl)-N-(2-fluoro-6-methoxybenzyl)-[1,2,4]triazolo[4,3-a] pyridin-5-amine]				16.9 nM	15.4 nM	
COc1cccc(F)c1CNc1ccc(-c2ccnc(C(F)(F)F)c2)c2nncn12 [Example 264, N-(2-fluoro-6-methoxybenzyl)-8-(2-(trifluoromethyl)pyridin-4-yl)-[1,2,4]triazolo[4,3-a] pyridin-5-amine]				14.8 nM	14.7 nM	
COc1cc(CNc2ccc(-c3cccnc3C)c3nncn23)c(F)cc1F [Example 285, N-(2,4-difluoro-5-methoxybenzyl)-8-(2-methylpyridin-3-yl)-[1,2,4]triazolo[4,3-a] pyridin-5-amine]				176 nM	112 nM	
COc1ccc(F)c(F)c1CNc1ccc(-c2cccnc2C)c2nncn12 [Example 286, N-(2,3-difluoro-6-methoxybenzyl)-8-(2-methylpyridin-3-yl)-[1,2,4]triazolo[4,3-a] pyridin-5-amine]				112 nM	115 nM	
COc1ccc(F)c(CNc2ccc(-c3cccnc3C)c3nncn23)c1 [Example 291, N-(2-fluoro-5-methoxybenzyl)-8-(2-methylpyridin-3-yl)-[1,2,4]triazolo[4,3-a] pyridin-5-amine]				184 nM	84.9 nM	
CCc1ccncc1-c1ccc(NCc2c(F)cc(F)cc2OC)n2cnnc12 [Example 307, N-(2,4-difluoro-6-methoxybenzyl)-8-(4-ethylpyridin-3-yl)-[1,2,4]triazolo[4,3-a] pyridin-5-amine]				205 nM	226 nM	
COc1cccc(F)c1CNc1ccc(-c2c(C)ccnc2C)c2nncn12 [Example 346, 8-(2,4-dimethylpyridin-3-yl)-N-(2-fluoro-6-methoxybenzyl)-[1,2,4]triazolo[4,3-a] pyridin-5-amine]						IC50 [1, 8]: 142 nM; IC50 [3, 9]: 260 nM
COc1cccnc1CNc1ccc(-c2cccnc2C)c2nncn12 [Example 347, N-((3-methoxypyridin-2-yl)methyl)-8-(2-methylpyridin-3-yl)-[1,2,4]triazolo[4,3-a] pyridin-5-amine]						IC50 [1, 8]: 791 nM; IC50 [3, 9]: 771 nM
COc1cnccc1CNc1ccc(-c2cccnc2C)c2nncn12 [Example 360, N-((3-methoxypyridin-4-yl)methyl)-8-(2-methylpyridin-3-yl)-[1,2,4]triazolo[4,3-a] pyridin-5-amine]						IC50 [1, 8]: 4090 nM; IC50 [3, 9]: 3040 nM
COc1cccc(CNc2ccc(-c3cccnc3C)c3nncn23)n1 [Example 364, N-((6-methoxypyridin-2-yl)methyl)-8-(2-methylpyridin-3-yl)-[1,2,4]triazolo[4,3-a] pyridin-5-amine]						IC50 [1, 8]: 120 nM; IC50 [3, 9]: 80.6 nM
COc1cccc(F)c1CNc1ccc(-c2cn(C)c(C)n2)c2nncn12 [Example 365, 8-(1,2-dimethyl-1H-imidazol-4-yl)-N-(2-fluoro-6-methoxybenzyl)-[1,2,4] triazolo[4,3-a]pyridin-5-amine]						IC50 [1, 8]: 197 nM; IC50 [3, 9]: 278 nM
COc1nccc(N)c1CNc1ccc(-c2cccnc2C)c2nncn12 [Example 371, N-((4-amino-2-methoxypyridin-3-yl)methyl)-8-(2-methylpyridin-3-yl)-[1,2,4] triazolo[4,3-a]pyridin-5-amine]						IC50 [1, 8]: 102 nM; IC50 [3, 9]: 92.7 nM

Continued, in another order:

IC50 [1, 4]	IC50 [2]	IC50 [3, 5]	IC50 [1, 6]	IC50 [3, 7]	Structure (SMILES)	further results
			420 nM	833 nM	COc1cccc(F)c1CNc1c(F)cc(-c2cccnc2C)c2nncn12 [Example 311, 6-fluoro-N-(2-fluoro-6-methoxybenzyl)-4-(2-methylpyridin-3-yl)-[1,2,4] triazolo[4,3-a]pyridin-7-amine]	
			71.6 nM	71.6 nM	COc1cc(C)c(-c2ccc(NCc3c(F)cc(F)cc3OC)n3cnnc23)cn1 [Example 318, N-(2,4-difluoro-6-methoxybenzyl)-8-(6-methoxy-4-methylpyridin-3-yl)-[1,2,4] triazolo[4,3-a]pyridin-5-amine]	
			425 nM	434 nM	COc1cc(F)cc(F)c1CNc1c(F)cc(-c2cccnc2C)c2nncn12 [Example 320, N-(2,4-difluoro-6-methoxybenzyl)-6-fluoro-8-(2-methylpyridin-3-yl)-[1,2,4]triazolo [4,3-a]pyridin-5-amine]	
			2660 nM	1530 nM	COc1cc(F)cc(F)c1CNc1c(F)cc(-c2cnc(C)nc2C)c2nncn12 [Example 321, N-(2,4-difluoro-6-methoxybenzyl)-8-(2,4-dimethylpyrimidin-5-yl)-6-fluoro-[1,2,4]triazolo[4,3-a]pyridin-5-amine]	
			459 nM	519 nM	Cc1cccc(F)c1CNc1ccc(-c2cccnc2C)c2nncn12 [Example 331, N-(2-fluoro-6-methylbenzyl)-8-(2-methylpyridin-3-yl)-[1,2,4]triazolo[4,3-a] pyridin-5-amine]	
